Data published in patent US20210221822A1, “TRICYCLIC DERIVATIVES INHIBITOR, PREPARATION METHOD, AND APPLICATIONS THEREOF” (Jiangsu Hansoh Pharmaceutical Group Co., Ltd., priority 2018, published 2021).
Read-outs that look alike come from different tables or passages of the source.

What was measured:
PI3Kβ = target: T1, PI3Kβ (Homo sapiens, UniProt P42338); assay: ADP-Glo lipid kinase assay, PI3Kβ kinase activity; format: biochemical; settings: 0.4 nM enzyme, 90 min, 100 μM ATP
T1 construct: purchased Carna 11-102
Method: (§1) Experimental method: Promega's ADP-Glo lipid kinase assay method (Promega #V9102) was applied in this experiment. Lipid kinase PI3Kα/β/γ/δ catalyzed the generation of ADP from ATP in the presence of the substrate PIP2: 3PS and ATP. The lipid kinase activity was characterized by measuring the ADP content in the reaction, and the half inhibitory concentration IC50 of the compound on inhibiting PI3Kα/β/γ/δ kinase activity was thus obtained.
(§2) The kinase reaction was carried out in a white 384-well plate (Perkin Elmer #6007299). 2 μL of the compound solution of different concentrations diluted with ddH2O containing 1% DMSO was added to each well. 2 μL of ddH2O containing 1% DMSO was added to the positive control well. 2 μL of 0.1-2 nM PI3K kinase solution diluted with 5× kinase buffer (HEPES 250 mM, MgCl2 15 mM, NaCl 250 mM, BSA 0.05%) was added to each well. 2 μL of 5× kinase buffer was added to the negative control well. 4 μL of 50 μM substrate PIP2: 3PS (Promega #V1701) formulated with 10× Dilution buffer and ddH2O was added to all wells. Finally, 2 μL of […] ATP solution diluted with water was added to start the reaction. After the reaction was carried out at room temperature for 90 to 120 minutes, 10 μL of ADP-Glo Reagent (containing 10 mM MgCl2) was added to each well, and reacted at room temperature for 60 minutes to remove excess ATP in the reaction. 20 μL of Kinase Detection Reagent was added to each well, and reacted at room temperature in the dark for 20 minutes. The chemiluminescence value was measured by the BioTek Synergy H1 microplate reader.
(§3) The percentage inhibition data of the compound-treated well was calculated through the positive control well (DMSO control well) and negative control well (no kinase added) on the plate {% inhibition rate=100−[(test compound value−negative control value)]/(positive control value−negative control value)×100}. The IC50 value was calculated by fitting the data of different concentrations and corresponding percentage inhibition rates to a four-parameter nonlinear logic formula with GraphPad prism.

[1] = Pharmacokinetic (PK) assay in mice; format: in vivo; settings: male, Balb/c, mouse, plasma, po, single intragastric 5 mg/kg
Method: The pharmacokinetic assay of the preferred compounds of the examples of the present invention in mice was carried out in Balb/c male mice (Shanghai Jiesijie Laboratory Animal Co., LTD). • Administration mode: single intragastric administration. • Administration dose: 5 mg/10 ml/kg (body weight). • Formulation: the compound was dissolved in 0.5% CMC-Na by ultrasound to obtain a clear solution or homogeneous suspension. • Sampling points: 0.5, 1, 2, 4, 6, 8 and 24 hours after administration. • Sample process: • 1) 0.1 mL of blood was taken from the orbit, placed in a K2-EDTA tube, and centrifuged for 5 to 20 minutes at room temperature at 1000 to 3000×g to separate the plasma, which was then stored at −80° C. • 2) 160 uL of acetonitrile was added to 40 uL of plasma sample for precipitation, and then the mixture was centrifuged for 5 to 20 minutes at 500 to 2000×g. • 3) 100 uL of processed supernatant was taken and analyzed by LC/MS/MS assay to determine the concentration of the test compound. • LC-MS/MS assay: • Liquid chromatography condition: Shimadzu LC-20AD pump • Mass spectrometry condition: AB Sciex API 4000 mass spectrometer • Chromatographic column: phenomenex Gemiu 5 μm C18 50×4.6 mm • Mobile phase: solution A was 0.1% aqueous formic acid solution, and solution B was acetonitrile • Flow rate: 0.8 mL/min • Elution time: 0-4 minutes gradient elution • Pharmacokinetics: […]
The main parameters were calculated using WinNonlin 6.1.

PI3Kγ = target: T2, PI3Kγ (Homo sapiens, UniProt P48736); assay: ADP-Glo lipid kinase assay, PI3Kγ kinase activity; format: biochemical; settings: 0.4 nM enzyme, 120 min, 50 μM ATP
T2 construct: purchased Thermofisher PV4786
Method: as §1, §2, §3

[2] = Toxicity test of a 7-day repeatedly intragastric administration in SD rats; format: in vivo
Source text: (§4) 1) In the experiment, 112 rats (56 rats/sex) were divided into 14 groups by sex and body weight, wherein 70 rats were used for toxicology study (groups 1 to 7, 5 rats/sex/group) and 42 rats were used for toxicokinetics study (groups 8 to 14, 3 rats/sex/group).
2) As the vehicle control group, the animals in groups 1 and 8 were intragastrically administered 20% aqueous SBE-(3-CD (Captisol) solution.
(§5) 3) The animals in groups 2 and 9, groups 3 and 10, and groups 4 and 11 were intragastrically administered GDC-0077 at 10, 30 and 60 mg/kg, respectively.
(§6) 4) The animals in groups 5 and 12, groups 6 and 13, and groups 7 and 14 were intragastrically administered the compound of Example 51 at 10, 30 and 60 mg/kg, respectively.
(§7) 5) The animals were administered once a day for 7 consecutive days (the animals in groups 7 and 14 were administered for 6 consecutive days).
6) The administration volume was 10 mL/kg.
(§8) 7) During the experiment, items such as clinical observation, body weight, food intake, clinicopathological indicators (blood cell count, coagulation function, blood biochemistry), toxicokinetics and the like were studied.
8) All animals were euthanized on Day 8 (the animals in groups 7 and 14 were euthanized after administration on Day 6).
9) During the experiment, gross anatomy observation was carried out on animals in groups 1 to 7, animals in group 14 and dead animals (including animals in toxicokinetics study), and histopathological examination was carried out on abnormal tissues, gastrointestinal tissues (such as colon and cecum) and immune tissues (such as thymus).

PI3Kα = target: T3, PI3Kα (Homo sapiens, UniProt P42336); assay: ADP-Glo lipid kinase assay, PI3Kα kinase activity; format: biochemical; settings: for IC50: ADP-Glo, 0.1 nM enzyme, 120 min, 50 μM ATP; for Selectivity of PI3Kα vs PI3Kβ: ratio of IC50 PI3Kβ to IC50 PI3Kα; for Selectivity of PI3Kα vs PI3Kγ: ratio of IC50 PI3Kγ to IC50 PI3Kα; for Selectivity of PI3Kα vs PI3Kδ: ratio of IC50 PI3Kδ to IC50 PI3Kα
T3 construct: purchased Promega V1721
Method: as §1, §2, §3

PI3Kδ = target: T4, PI3Kδ (Homo sapiens, UniProt O00329); assay: ADP-Glo lipid kinase assay, PI3Kδ kinase activity; format: biochemical; settings: 0.1 nM enzyme, 90 min, 100 μM ATP
T4 construct: purchased Carna 11-103
Method: as §1, §2, §3

[3] = Toxicokinetics in the 7-day repeated intragastric administration study in SD rats; format: in vivo, Sprague-Dawley (SD) rats; settings: for AUC: Sprague-Dawley, rat, plasma, po, after the last administration, read-out: average system exposure AUC
Source text: Liquid chromatography−mass spectrometry (detector: API4000, electrospray source (ESI) positive ion mode, column: Agilent ZORBAX XDB-C18 (3.5 μm, 2.1×50 mm)), which was used for the biological analysis of plasma sample.
as §4, §5, §6, §7, §8

[4] = tested on: PI3Kα mutant cancer cells MKN1 (E545K); assay: Cell Titer-Glo proliferation inhibition, MKN1; format: cell-based; settings: Homo sapiens, MKN-1, 48 to 96 hours
Method: (§9) Experimental method: The proliferation inhibitory effect of the compounds of the examples on PI3Kα mutant cancer cell lines HCC1954, HGC-27 and MKN1 was determined by Cell Titer-Glo method. The cell lines were cultured in RPMI 1640 medium (Gibco #22400089) containing 10% FBS (Gibco #10091148) and 1% P/S (Hyclone #SV30010) at 37° C. and 5% CO2. Before the experiment, the cells were collected and counted, and then the cell density was adjusted. The cells were inoculated in a white 96-well plate (Corning #3610) at a density of 1000 to 10000 cells/well, and incubated in an incubator at 37° C., 5% CO2 overnight. The compound solution of different concentrations was added, and corresponding vehicle control was set at the same time. The cell plate was further incubated in an incubator at 37° C., 5% CO2 for 48 to 96 hours. The cell plate and its content were equilibrated to room temperature. 20 to 100 μL of Cell Titer-Glo solution (Promega #G7573) was added to each well, and the plate was shaked well and incubated at room temperature in the dark for 5 to 30 minutes. The chemiluminescence value was measured by the BioTek SynergyH1 microplate reader.
(§10) The percentage inhibition data of the well treated by the compounds of the examples was calculated through the vehicle control well on the plate {% inhibition rate=100−(test compound value/vehicle control value)×100}. The IC50 value was calculated by fitting the data of different concentrations and corresponding percentage inhibition rates to a four-parameter nonlinear logic formula with GraphPad prism.

[5] = tested on: PI3Kα mutant cancer cells HCC1954 (H1047R); assay: Cell Titer-Glo proliferation inhibition, HCC1954; format: cell-based; settings: Homo sapiens, 48 to 96 hours
Method: as §9, §10

[6] = tested on: PI3Kα mutant cancer cells HGC-27 (E542K); assay: Cell Titer-Glo proliferation inhibition, HGC-27; format: cell-based; settings: Homo sapiens, 48 to 96 hours
Method: as §9, §10

[7] = SD rats, 10, 30 and 60 mg/kg (low, middle, high dose)

T3 sequence (P42336 whole entry): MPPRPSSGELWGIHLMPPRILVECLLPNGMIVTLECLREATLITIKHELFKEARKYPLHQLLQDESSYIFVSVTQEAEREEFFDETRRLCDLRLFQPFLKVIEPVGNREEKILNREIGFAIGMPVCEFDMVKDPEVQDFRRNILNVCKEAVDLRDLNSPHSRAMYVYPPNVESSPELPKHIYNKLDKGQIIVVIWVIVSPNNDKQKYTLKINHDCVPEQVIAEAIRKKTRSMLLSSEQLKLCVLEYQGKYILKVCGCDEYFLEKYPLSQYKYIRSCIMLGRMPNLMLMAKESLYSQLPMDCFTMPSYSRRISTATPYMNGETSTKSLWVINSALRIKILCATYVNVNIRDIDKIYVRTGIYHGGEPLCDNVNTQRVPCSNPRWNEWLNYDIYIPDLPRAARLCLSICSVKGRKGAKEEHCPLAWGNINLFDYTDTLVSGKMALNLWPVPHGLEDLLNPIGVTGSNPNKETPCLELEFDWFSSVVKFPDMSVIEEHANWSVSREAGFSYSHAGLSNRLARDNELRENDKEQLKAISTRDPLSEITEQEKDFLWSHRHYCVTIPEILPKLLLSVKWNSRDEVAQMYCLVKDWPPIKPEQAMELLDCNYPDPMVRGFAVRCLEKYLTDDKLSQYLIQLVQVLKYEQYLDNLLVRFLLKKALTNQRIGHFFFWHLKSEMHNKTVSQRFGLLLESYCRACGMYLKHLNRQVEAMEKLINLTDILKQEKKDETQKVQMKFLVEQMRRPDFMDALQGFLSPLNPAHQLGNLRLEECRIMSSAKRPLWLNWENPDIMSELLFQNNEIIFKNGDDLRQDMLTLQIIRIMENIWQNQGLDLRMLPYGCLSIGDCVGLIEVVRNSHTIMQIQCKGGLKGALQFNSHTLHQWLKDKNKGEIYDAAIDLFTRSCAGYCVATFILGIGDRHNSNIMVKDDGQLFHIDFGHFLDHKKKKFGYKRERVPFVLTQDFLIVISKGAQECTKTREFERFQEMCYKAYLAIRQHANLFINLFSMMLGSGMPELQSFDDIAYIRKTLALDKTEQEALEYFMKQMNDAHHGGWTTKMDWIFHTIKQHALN
T3 sequence (P27986 whole entry partner): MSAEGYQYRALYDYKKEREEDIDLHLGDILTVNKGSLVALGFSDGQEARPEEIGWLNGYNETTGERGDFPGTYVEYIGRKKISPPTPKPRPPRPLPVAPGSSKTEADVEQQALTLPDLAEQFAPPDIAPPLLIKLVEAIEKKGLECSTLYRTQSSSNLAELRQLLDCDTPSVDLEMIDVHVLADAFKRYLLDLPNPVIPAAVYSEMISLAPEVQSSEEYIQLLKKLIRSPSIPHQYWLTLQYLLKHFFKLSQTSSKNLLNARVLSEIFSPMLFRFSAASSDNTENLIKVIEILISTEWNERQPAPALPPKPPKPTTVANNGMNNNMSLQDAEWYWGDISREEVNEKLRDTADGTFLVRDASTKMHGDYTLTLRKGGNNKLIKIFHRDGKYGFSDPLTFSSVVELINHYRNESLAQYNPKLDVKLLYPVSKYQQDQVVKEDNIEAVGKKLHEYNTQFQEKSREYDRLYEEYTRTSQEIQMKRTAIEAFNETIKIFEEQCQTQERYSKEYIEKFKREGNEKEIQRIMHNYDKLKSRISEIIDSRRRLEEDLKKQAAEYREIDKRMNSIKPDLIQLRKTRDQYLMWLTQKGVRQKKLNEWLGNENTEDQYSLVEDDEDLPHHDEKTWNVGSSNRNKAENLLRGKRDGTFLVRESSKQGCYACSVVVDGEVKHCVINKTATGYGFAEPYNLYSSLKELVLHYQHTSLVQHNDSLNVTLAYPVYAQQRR
T2 sequence (P48736 whole entry): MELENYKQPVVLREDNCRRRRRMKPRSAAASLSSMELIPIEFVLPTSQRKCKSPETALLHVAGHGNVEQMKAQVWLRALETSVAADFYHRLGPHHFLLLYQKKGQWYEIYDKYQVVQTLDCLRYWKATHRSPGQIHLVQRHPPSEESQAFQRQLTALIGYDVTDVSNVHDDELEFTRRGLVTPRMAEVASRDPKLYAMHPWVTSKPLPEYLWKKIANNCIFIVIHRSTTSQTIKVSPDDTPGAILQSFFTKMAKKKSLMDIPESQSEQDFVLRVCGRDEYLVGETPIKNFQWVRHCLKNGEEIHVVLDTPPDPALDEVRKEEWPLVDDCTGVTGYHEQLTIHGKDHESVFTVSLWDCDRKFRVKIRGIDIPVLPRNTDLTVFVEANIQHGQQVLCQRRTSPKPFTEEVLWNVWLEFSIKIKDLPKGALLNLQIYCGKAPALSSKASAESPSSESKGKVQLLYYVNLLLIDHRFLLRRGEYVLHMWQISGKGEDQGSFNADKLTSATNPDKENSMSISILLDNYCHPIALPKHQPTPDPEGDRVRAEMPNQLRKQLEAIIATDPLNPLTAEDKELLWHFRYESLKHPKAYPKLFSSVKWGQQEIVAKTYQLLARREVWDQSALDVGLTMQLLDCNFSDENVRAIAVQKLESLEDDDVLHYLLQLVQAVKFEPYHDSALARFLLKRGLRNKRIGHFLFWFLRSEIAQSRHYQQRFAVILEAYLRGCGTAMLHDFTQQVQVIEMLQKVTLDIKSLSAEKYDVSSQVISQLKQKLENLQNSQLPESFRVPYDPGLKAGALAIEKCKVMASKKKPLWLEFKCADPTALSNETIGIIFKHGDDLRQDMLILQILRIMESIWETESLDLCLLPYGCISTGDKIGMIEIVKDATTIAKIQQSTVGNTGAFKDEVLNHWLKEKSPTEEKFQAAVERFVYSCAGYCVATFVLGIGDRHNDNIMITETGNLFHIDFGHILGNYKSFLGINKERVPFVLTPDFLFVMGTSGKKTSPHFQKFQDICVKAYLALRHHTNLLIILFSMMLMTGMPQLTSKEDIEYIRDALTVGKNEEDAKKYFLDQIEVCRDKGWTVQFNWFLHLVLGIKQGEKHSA
T1 sequence (P42338 whole entry): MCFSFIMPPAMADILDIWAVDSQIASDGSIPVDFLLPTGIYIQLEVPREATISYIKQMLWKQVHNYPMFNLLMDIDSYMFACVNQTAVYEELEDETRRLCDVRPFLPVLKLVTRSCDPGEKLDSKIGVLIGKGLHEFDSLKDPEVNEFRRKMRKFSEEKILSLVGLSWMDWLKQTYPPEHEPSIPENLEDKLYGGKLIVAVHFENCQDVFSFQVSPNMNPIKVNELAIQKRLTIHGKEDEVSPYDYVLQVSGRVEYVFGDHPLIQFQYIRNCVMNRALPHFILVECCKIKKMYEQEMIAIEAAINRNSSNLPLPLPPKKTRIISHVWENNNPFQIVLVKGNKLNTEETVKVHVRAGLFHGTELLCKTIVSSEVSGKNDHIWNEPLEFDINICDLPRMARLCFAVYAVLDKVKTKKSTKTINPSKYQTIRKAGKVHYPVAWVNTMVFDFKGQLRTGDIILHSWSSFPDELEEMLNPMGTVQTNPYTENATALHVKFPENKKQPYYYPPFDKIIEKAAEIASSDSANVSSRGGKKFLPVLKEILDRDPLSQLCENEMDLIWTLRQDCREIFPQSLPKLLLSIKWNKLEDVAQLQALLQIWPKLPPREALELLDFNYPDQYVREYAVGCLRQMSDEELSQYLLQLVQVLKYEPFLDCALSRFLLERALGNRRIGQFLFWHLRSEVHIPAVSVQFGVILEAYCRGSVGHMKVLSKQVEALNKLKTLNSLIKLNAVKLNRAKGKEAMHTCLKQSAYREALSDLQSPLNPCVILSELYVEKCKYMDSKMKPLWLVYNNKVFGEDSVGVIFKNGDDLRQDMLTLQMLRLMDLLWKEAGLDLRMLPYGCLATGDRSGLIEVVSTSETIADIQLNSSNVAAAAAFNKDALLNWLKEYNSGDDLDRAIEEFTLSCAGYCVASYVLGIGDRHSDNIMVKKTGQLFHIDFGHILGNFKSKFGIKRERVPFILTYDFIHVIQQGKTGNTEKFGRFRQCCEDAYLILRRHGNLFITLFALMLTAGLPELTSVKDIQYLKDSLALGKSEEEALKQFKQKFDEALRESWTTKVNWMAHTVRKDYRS
T1 sequence (P27986 whole entry partner): as the sequence (P27986 whole entry partner) above
T4 sequence (O00329 whole entry): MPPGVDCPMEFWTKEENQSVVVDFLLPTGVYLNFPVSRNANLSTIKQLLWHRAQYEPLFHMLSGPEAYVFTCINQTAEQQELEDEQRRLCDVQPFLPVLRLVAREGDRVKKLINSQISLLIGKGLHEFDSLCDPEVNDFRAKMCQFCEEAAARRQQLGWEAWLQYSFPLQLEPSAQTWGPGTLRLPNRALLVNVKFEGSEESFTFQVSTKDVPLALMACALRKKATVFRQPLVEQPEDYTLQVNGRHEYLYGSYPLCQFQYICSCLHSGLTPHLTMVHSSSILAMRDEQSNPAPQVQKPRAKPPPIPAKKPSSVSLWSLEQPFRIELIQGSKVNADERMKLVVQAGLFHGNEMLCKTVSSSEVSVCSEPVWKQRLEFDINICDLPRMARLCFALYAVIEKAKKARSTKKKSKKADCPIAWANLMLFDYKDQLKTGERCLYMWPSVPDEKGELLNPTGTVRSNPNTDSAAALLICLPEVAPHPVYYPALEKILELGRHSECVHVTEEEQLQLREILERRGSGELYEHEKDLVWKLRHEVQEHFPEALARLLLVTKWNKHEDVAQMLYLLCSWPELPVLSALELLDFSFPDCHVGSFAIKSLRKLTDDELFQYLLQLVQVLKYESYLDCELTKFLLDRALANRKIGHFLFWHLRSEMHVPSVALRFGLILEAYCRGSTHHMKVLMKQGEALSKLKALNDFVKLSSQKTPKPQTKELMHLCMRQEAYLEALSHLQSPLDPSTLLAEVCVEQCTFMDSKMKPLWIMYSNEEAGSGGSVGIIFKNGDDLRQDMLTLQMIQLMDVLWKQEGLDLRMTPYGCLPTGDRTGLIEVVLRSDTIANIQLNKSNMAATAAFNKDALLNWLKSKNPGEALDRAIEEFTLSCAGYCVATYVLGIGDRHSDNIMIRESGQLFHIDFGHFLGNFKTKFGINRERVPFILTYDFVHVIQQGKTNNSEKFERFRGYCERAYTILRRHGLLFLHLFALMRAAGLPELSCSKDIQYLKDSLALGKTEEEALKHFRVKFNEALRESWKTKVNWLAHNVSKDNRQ
T4 sequence (P27986 whole entry partner): as the sequence (P27986 whole entry partner) above

## C[C@H](Nc1ccc2c(c1)OCCn1cc(N3C(=O)SC[C@H]3C(F)F)nc1-2)C(N)=O [Example 51, (S)-2-((2-((R)-4-(difluoromethyl)-2-oxothiazolidin-3-yl)-5,6-dihydrobenzo[f]imidazo[1,2-d][1,4]oxazepin-9-yl)amino)propanamide]
PI3Kβ
  IC50: 168 nM
[1]; read-out: Area under curve AUC0-t
  AUC(0-t): 2180 ng·h/mL
[1]; read-out: Area under curve AUC0-∞
  AUC(0-inf): 2270 ng·h/mL
[1]; read-out: Half-life t1/2(h) (converted)
  half-life: 1.6 h
[1]; read-out: Mean residence time MRT
  MRT: 2.2 h
[1]; read-out: Peak time tmax
  Tmax: 0.5 h
[1]; read-out: Plasma concentration Cmax
  Cmax: 1060 ng/mL
PI3Kγ
  IC50: 90 nM
[2]; SD rats
  main target organs of the toxicity: gastrointestinal tissues (such as stomach and cecum) and immune tissues (such as thymus)
  tolerance compared with GDC-0077: better than that of GDC-0077
[2]; SD rats, 10, 30 and 60 mg/kg
  Blood biochemistry: In 60 mg/kg group, AST, Glu and UREA increased in both male and female animals; in 30 mg/kg group, AST and UREA increased in both male and female animals, and Glu increased in male animals; and in 10 mg/kg group, AST increased in both male and female animals
  Blood cell counting and coagulation function: In each dose group, Retic decreased in both male and female animals; and in 30 mg/kg group and 60 mg/kg group, Neut increased and PLT decreased in both male and female animals
  Pathology, pathological changes under the microscope: bleeding and atrophy of glandular gastric mucosa; bleeding of cecal mucosa, atrophy of goblet cell, atrophy of colonic mucosa goblet cell; atrophy of splenic white pulp; and atrophy of thymic cortex or cortex and medulla, increase in tingible body macrophages and the like
[2]; [7]
  Body weight and food intake: In the low-dose, middle-dose and high-dose groups, the final body weight declined, and the corresponding food intake also declined
  Clinical observation: In the middle-dose and high-dose groups, abnormal symptoms such as arched back, loose stools, perianal contamination and fluffy coat were observed
[2]; SD rats, dose of 60 mg/kg
  Near-death/death: near-dead/dead animals were found
[2]; SD rats, intragastric once/day for 7 days
  lethal dose: 60 mg/kg
[2]; both sexes, Sprague-Dawley, rat, in vivo, po, SD rats, intragastric once/day for 7 days, read-out: maximum tolerated dose (MTD)
  MTD at 7 days: 30 mg/kg
PI3Kα
  IC50: 0.2 nM
  Selectivity of PI3Kα vs PI3Kβ: 840
  Selectivity of PI3Kα vs PI3Kγ: 450
  Selectivity of PI3Kα vs PI3Kδ: 245
PI3Kδ
  IC50: 49 nM
[3]; 30 mg/kg
  Cmax and AUC(0-24h) compared with GDC-0077: significantly higher than those of GDC-0077
[3]; 10 mg/kg intragastric once a day, female
  AUC: 3170 ng·h/mL
[3]; 10 mg/kg intragastric once a day, male
  AUC: 2110 ng·h/mL
[3]; 30 mg/kg intragastric once a day, female
  AUC: 15900 ng·h/mL
[3]; 30 mg/kg intragastric once a day, male
  AUC: 11400 ng·h/mL
[3]; same dose
  system exposure compared with GDC-0077: significantly higher than that of GDC-0077 at the same dose

## C[C@H](Nc1ccc2c(c1)OCCn1cc(N3C(=O)CN(C)C[C@H]3C(F)F)nc1-2)C(N)=O [Example 69, (S)-2-((2-((S)-2-(difluoromethyl)-4-methyl-6-oxopiperazin-1-yl)-5,6-dihydrobenzo[f]imidazo[1,2-d][1,4]oxazepin-9-yl)amino)propanamide]
PI3Kβ
  IC50: 3180 nM
[4]
  IC50: 584 nM
PI3Kγ
  IC50: 332 nM
[5]
  IC50: 601 nM
[6]
  IC50: 433 nM
PI3Kα
  IC50: 2.1 nM
  Selectivity of PI3Kα vs PI3Kβ: 1514
  Selectivity of PI3Kα vs PI3Kγ: 158
  Selectivity of PI3Kα vs PI3Kδ: 68
PI3Kδ
  IC50: 142 nM

## C[C@H](Nc1ccc2c(c1)OCCn1cc(N3C(=O)OC[C@H]3CC#N)nc1-2)C(N)=O [Example 118, (S)-2-((2-((R)-4-(cyanomethyl)-2-oxooxazolidin-3-yl)-5,6-dihydrobenzo[f]imidazo[1,2-d][1,4]oxazepin-9-yl)amino)propanamide]
PI3Kβ
  IC50: 190 nM
[4]
  IC50: 398 nM
PI3Kγ
  IC50: 74 nM
[5]
  IC50: 140 nM
[6]
  IC50: 371 nM
PI3Kα
  IC50: 1.3 nM
  Selectivity of PI3Kα vs PI3Kβ: 146
  Selectivity of PI3Kα vs PI3Kγ: 57
  Selectivity of PI3Kα vs PI3Kδ: 38
PI3Kδ
  IC50: 50 nM
